Species on record: Rattus norvegicus
Test: Open TG-GATES - Regimen: Single
Assay type: toxicity, organism-based, Sprague-Dawley
Design: regimen Single, gender Male, age 6 weeks
Conditions: in vivo, po, 300 mg/kg, route gavage, dose level Middle; for APTT / Bas / Eos / Fbg / Hb / Ht / Lym / MCH / MCHC / MCV / Mono / Neu / PT / Plat / RBC / Ret / WBC: tissue Blood; for KIDNEY_L / KIDNEY_R / KIDNEY_TOTAL: tissue Kidney; for LIVER: tissue Liver; for A/G / ALP / ALT / AST / BUN / CRE / Ca / Cl / DBIL / GLC / IP / K / LDH / Na / PL / RALB / TBIL / TC / TG / TP / gamma-GTP: tissue Plasma

## CN(C)[C@@H]1C(O)=C(C(N)=O)C(=O)[C@@]2(O)C(O)=C3C(=O)c4c(O)cccc4[C@@](C)(O)[C@H]3C[C@@H]12 [TETRACYCLINE]
3 h
  TERMINAL_BW: 186.7 g
  APTT: 16.4 s
  Bas: 0%
  Eos: 0.6%
  Fbg: 198 mg/dL
  Hb: 13.6 g/dL
  Ht: 41%
  Lym: 76.4%
  MCH: 21.9 pg
  MCHC: 33.1%
  MCV: 66.2 fL
  Mono: 8.4%
  Neu: 14.8%
  PT: 12.3 s
  Plat: 97.2 x10_4/uL
  RBC: 619.2 x10_4/ul
  Ret: 10%
  WBC: 122.2 x10_2/uL
  KIDNEY_L: 0.9 g
  KIDNEY_R: 0.9 g
  KIDNEY_TOTAL: 1.8 g
  LIVER: 9 g
  A/G: 1.9
  ALP: 940.2 IU/L
  ALT: 42.2 IU/L
  AST: 74.4 IU/L
  BUN: 13.2 mg/dL
  CRE: 0.5 mg/dL
  Ca: 10.9 mg/dL
  Cl: 104.6 meq/L
  DBIL: 0.026 mg/dL
  GLC: 179.6 mg/dL
  IP: 11.5 mg/dL
  K: 5.4 meq/L
  LDH: 103 IU/L
  Na: 137.2 meq/L
  PL: 129.6 mg/dL
  RALB: 3.6 g/dL
  TBIL: 0.4 mg/dL
  TC: 71.4 mg/dL
  TG: 39.4 mg/dL
  TP: 5.5 g/dL
  gamma-GTP: 1.6 IU/L
6 h
  TERMINAL_BW: 183.9 g
  APTT: 17.1 s
  Bas: 0%
  Eos: 0.6%
  Fbg: 206.8 mg/dL
  Hb: 13.4 g/dL
  Ht: 40.3%
  Lym: 78.6%
  MCH: 22.5 pg
  MCHC: 33.3%
  MCV: 67.7 fL
  Mono: 5.6%
  Neu: 15.4%
  PT: 12.1 s
  Plat: 103.8 x10_4/uL
  RBC: 595.2 x10_4/ul
  Ret: 10.1%
  WBC: 91.7 x10_2/uL
  KIDNEY_L: 0.9 g
  KIDNEY_R: 0.9 g
  KIDNEY_TOTAL: 1.7 g
  LIVER: 8.3 g
  A/G: 2.1
  ALP: 930.4 IU/L
  ALT: 36.4 IU/L
  AST: 72.4 IU/L
  BUN: 12.4 mg/dL
  CRE: 0.4 mg/dL
  Ca: 10.7 mg/dL
  Cl: 106 meq/L
  DBIL: 0.012 mg/dL
  GLC: 193.8 mg/dL
  IP: 11.1 mg/dL
  K: 5.2 meq/L
  LDH: 104.4 IU/L
  Na: 137.2 meq/L
  PL: 130.6 mg/dL
  RALB: 3.6 g/dL
  TBIL: 0.4 mg/dL
  TC: 72.8 mg/dL
  TG: 49.4 mg/dL
  TP: 5.4 g/dL
  gamma-GTP: 1.4 IU/L
9 h
  TERMINAL_BW: 180.6 g
  APTT: 16.6 s
  Bas: 0%
  Eos: 0.6%
  Fbg: 211 mg/dL
  Hb: 13.1 g/dL
  Ht: 39.7%
  Lym: 79.6%
  MCH: 21.7 pg
  MCHC: 33.1%
  MCV: 65.7 fL
  Mono: 7.6%
  Neu: 12.4%
  PT: 12.3 s
  Plat: 102.2 x10_4/uL
  RBC: 603.4 x10_4/ul
  Ret: 9.1%
  WBC: 101.6 x10_2/uL
  KIDNEY_L: 0.8 g
  KIDNEY_R: 0.8 g
  KIDNEY_TOTAL: 1.7 g
  LIVER: 7.5 g
  A/G: 2.4
  ALP: 849.2 IU/L
  ALT: 37 IU/L
  AST: 71.2 IU/L
  BUN: 13.4 mg/dL
  CRE: 0.4 mg/dL
  Ca: 10.6 mg/dL
  Cl: 106.2 meq/L
  DBIL: 0.036 mg/dL
  GLC: 182.8 mg/dL
  IP: 10.4 mg/dL
  K: 4.7 meq/L
  LDH: 92.6 IU/L
  Na: 138.4 meq/L
  PL: 126.8 mg/dL
  RALB: 3.8 g/dL
  TBIL: 0.4 mg/dL
  TC: 75.6 mg/dL
  TG: 24.6 mg/dL
  TP: 5.4 g/dL
  gamma-GTP: 2.2 IU/L
24 h
  TERMINAL_BW: 200.3 g
  APTT: 15.9 s
  Bas: 0%
  Eos: 0.8%
  Fbg: 202.8 mg/dL
  Hb: 13 g/dL
  Ht: 39.3%
  Lym: 83.6%
  MCH: 21.6 pg
  MCHC: 33.2%
  MCV: 65 fL
  Mono: 8.2%
  Neu: 7.4%
  PT: 12.1 s
  Plat: 117.3 x10_4/uL
  RBC: 605 x10_4/ul
  Ret: 9.9%
  WBC: 102.9 x10_2/uL
  KIDNEY_L: 0.9 g
  KIDNEY_R: 0.9 g
  KIDNEY_TOTAL: 1.9 g
  LIVER: 8.5 g
  A/G: 2.2
  ALP: 1031.8 IU/L
  ALT: 41.6 IU/L
  AST: 73.8 IU/L
  BUN: 18.4 mg/dL
  CRE: 0.5 mg/dL
  Ca: 11.3 mg/dL
  Cl: 105 meq/L
  DBIL: 0.016 mg/dL
  GLC: 184.4 mg/dL
  IP: 9.9 mg/dL
  K: 5 meq/L
  LDH: 96.8 IU/L
  Na: 141 meq/L
  PL: 149.2 mg/dL
  RALB: 3.8 g/dL
  TBIL: 0.4 mg/dL
  TC: 80.8 mg/dL
  TG: 57.2 mg/dL
  TP: 5.6 g/dL
  gamma-GTP: 1.4 IU/L
